This note sets out measurements from patent publication US12558442B2, “Biological fluid treatment systems” (priority 2019, dated 2026).

In the assay the test system is Klebsiella pneumoniae. Put plainly: Photochemical inactivation of K. pneumoniae in plasma or platelets in PAS with amotosalen and UVA LED illumination. Conditions: 150 μM amotosalen nominal, triplicate. It is filed as cell-based.

For `Cc1oc2c(C)c3oc(=O)cc(C)c3cc2c1COCCN` [S-59, 3-(2-aminoethoxymethyl)-2,5,9-trimethylfuro[3,2-g]chromen-7-one], the “Log Inactivation” value came to 6.3 ± 0.3 log (plasma, INTERCEPT plasma set, 6.4 J/cm^2, UVA LEDs 346-349 nm); 6.3±0.3 log (plasma, INTERCEPT plasma set, 6.4 J/cm^2, UVA LEDs 346-349 nm, listed as amotosalen); 7.2 ± 0.2 log (platelets/PAS, LV set, 3.9 J/cm^2, UVA LEDs 346-349 nm); 7.2±0.2 log (platelets/PAS, LV set, 3.9 J/cm^2, UVA LEDs 346-349 nm, listed as amotosalen).
